Results reported in the supplement of paper PMC10307832.

What was measured:
Assay in all cases: relative viability (nuclei count vs DMSO), 5 days (fraction); higher = more cells survive
[1] = test system: BEN
Summary of the method: (§1)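 After 5 days of treatment, lung cancer cells in 1536-well plates were fixed and stained in a single step (final 0.05% Triton X-100, 1% formaldehyde, 1 ug/ml Hoechst) and their nuclei counted on 4× images. Treatment had been applied by pin tool the day after seeding as one drug alone or as a fixed anchor-drug dose with five library-drug doses (not always all listed) in √10 steps. Relative viability is the nuclei count of treated wells divided by that of vehicle wells, and values are medians of duplicate plates.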

[2] = test system: CAL-12T
Summary of the method: as §1

[3] = test system: COR-L 105
Summary of the method: as §1

[4] = test system: COR-L23
Summary of the method: as §1

[5] = test system: HARA
Summary of the method: as §1

[6] = test system: HCC-15
Summary of the method: as §1

[7] = test system: HCC-366
Summary of the method: as §1

[8] = test system: HCC-44
Summary of the method: as §1

[9] = test system: HCC-827
Summary of the method: as §1

[10] = test system: HOP-62
Summary of the method: as §1

[11] = test system: LC-2-ad
Summary of the method: as §1

[12] = test system: LCLC-97TM1
Summary of the method: as §1

[13] = test system: LU99A
Summary of the method: as §1

[14] = test system: LXF-289
Summary of the method: as §1

[15] = test system: NCI-H1993
Summary of the method: as §1

[16] = test system: NCI-H2009
Summary of the method: as §1

[17] = test system: NCI-H2087
Summary of the method: as §1

[18] = test system: NCI-H2126
Summary of the method: as §1

[19] = test system: NCI-H2170
Summary of the method: as §1

[20] = test system: NCI-H727
Summary of the method: as §1

[21] = test system: PC-14
Summary of the method: as §1

[22] = test system: PC-3 [JPC-3]
Summary of the method: as §1

[23] = test system: SK-MES-1
Summary of the method: as §1

With `Cc1cnc(-c2cnc(NCCNc3ccc(C#N)cn3)nc2-c2ccc(Cl)cc2Cl)[nH]1` + N=C(N)NC(=N)NCCc1ccccc1 [Phenformin] (partner 250 µM) the relative viability ([1]; first compound 0.08 µM) was 0.232, the relative viability ([1]; first compound 0.253 µM) was 0.269 and the relative viability ([1]; first compound 0.8 µM) was 0.252. The relative viability ([1]; first compound 2.53 µM) was 0.261, the relative viability ([2]; first compound 0.08 µM) was 0.655 and the relative viability ([2]; first compound 0.253 µM) was 0.511. It also gave a relative viability ([2]; first compound 0.8 µM) of 0.597, a relative viability ([2]; first compound 2.53 µM) of 0.579 and a relative viability ([3]; first compound 0.08 µM) of 0.532. It also gave a relative viability ([3]; first compound 0.253 µM) of 0.487, a relative viability ([3]; first compound 0.8 µM) of 0.53 and a relative viability ([3]; first compound 2.53 µM) of 0.357. The relative viability ([4]; first compound 0.08 µM) was 0.493, the relative viability ([4]; first compound 0.253 µM) was 0.449 and the relative viability ([4]; first compound 2.53 µM) was 0.408. It also gave a relative viability ([5]; first compound 0.08 µM) of 0.451, a relative viability ([5]; first compound 0.253 µM) of 0.413 and a relative viability ([5]; first compound 0.8 µM) of 0.477. The relative viability ([5]; first compound 2.53 µM) was 0.412, the relative viability ([6]; first compound 0.08 µM) was 0.462 and the relative viability ([6]; first compound 0.253 µM) was 0.415. It also gave a relative viability ([6]; first compound 0.8 µM) of 0.471, a relative viability ([6]; first compound 2.53 µM) of 0.412 and a relative viability ([7]; first compound 0.08 µM) of 0.606. For the same molecule, the relative viability ([7]; first compound 0.253 µM) was 0.455, the relative viability ([7]; first compound 0.8 µM) was 0.557 and the relative viability ([7]; first compound 2.53 µM) was 0.507. The relative viability ([8]; first compound 0.08 µM) was 0.209, the relative viability ([8]; first compound 0.253 µM) was 0.192 and the relative viability ([8]; first compound 0.8 µM) was 0.182. For the same molecule, the relative viability ([8]; first compound 2.53 µM) was 0.139, the relative viability ([9]; first compound 0.08 µM) was 0.384 and the relative viability ([9]; first compound 0.8 µM) was 0.362. The relative viability ([9]; first compound 2.53 µM) was 0.337, the relative viability ([10]; first compound 0.08 µM) was 0.754 and the relative viability ([10]; first compound 0.253 µM) was 0.596. It also gave a relative viability ([10]; first compound 0.8 µM) of 0.685, a relative viability ([10]; first compound 2.53 µM) of 0.427 and a relative viability ([11]; first compound 0.08 µM) of 0.591. The relative viability ([11]; first compound 0.253 µM) was 0.515, the relative viability ([11]; first compound 2.53 µM) was 0.487 and the relative viability ([12]; first compound 0.08 µM) was 0.481. The relative viability ([12]; first compound 0.8 µM) was 0.535, the relative viability ([12]; first compound 2.53 µM) was 0.462 and the relative viability ([13]; first compound 0.08 µM) was 0.972. It also gave a relative viability ([13]; first compound 0.253 µM) of 0.769, a relative viability ([13]; first compound 0.8 µM) of 0.962 and a relative viability ([13]; first compound 2.53 µM) of 0.752. For the same molecule, the relative viability ([14]; first compound 0.08 µM) was 0.508, the relative viability ([14]; first compound 0.253 µM) was 0.482 and the relative viability ([14]; first compound 0.8 µM) was 0.536. For the same molecule, the relative viability ([14]; first compound 2.53 µM) was 0.503, the relative viability ([15]; first compound 0.08 µM) was 0.493 and the relative viability ([15]; first compound 0.253 µM) was 0.477. The relative viability ([15]; first compound 0.8 µM) was 0.521, the relative viability ([15]; first compound 2.53 µM) was 0.535 and the relative viability ([16]; first compound 0.08 µM) was 0.499. For the same molecule, the relative viability ([16]; first compound 0.253 µM) was 0.442, the relative viability ([16]; first compound 0.8 µM) was 0.489 and the relative viability ([16]; first compound 2.53 µM) was 0.271. It also gave a relative viability ([17]; first compound 0.08 µM) of 0.571, a relative viability ([17]; first compound 0.253 µM) of 0.379 and a relative viability ([17]; first compound 0.8 µM) of 0.442. For the same molecule, the relative viability ([17]; first compound 2.53 µM) was 0.329, the relative viability ([18]; first compound 0.08 µM) was 0.526 and the relative viability ([18]; first compound 0.253 µM) was 0.533. For the same molecule, the relative viability ([18]; first compound 0.8 µM) was 0.506, the relative viability ([18]; first compound 2.53 µM) was 0.567 and the relative viability ([19]; first compound 0.08 µM) was 0.422. For the same molecule, the relative viability ([19]; first compound 0.253 µM) was 0.351, the relative viability ([19]; first compound 0.8 µM) was 0.412 and the relative viability ([19]; first compound 2.53 µM) was 0.348. For the same molecule, the relative viability ([20]; first compound 0.08 µM) was 0.488, the relative viability ([20]; first compound 0.253 µM) was 0.478 and the relative viability ([20]; first compound 0.8 µM) was 0.478. For the same molecule, the relative viability ([20]; first compound 2.53 µM) was 0.597, the relative viability ([21]; first compound 0.08 µM) was 0.586 and the relative viability ([21]; first compound 0.253 µM) was 0.413. It also gave a relative viability ([21]; first compound 0.8 µM) of 0.568, a relative viability ([21]; first compound 2.53 µM) of 0.421 and a relative viability ([22]; first compound 0.08 µM) of 0.478. The relative viability ([22]; first compound 0.253 µM) was 0.474, the relative viability ([22]; first compound 0.8 µM) was 0.508 and the relative viability ([22]; first compound 2.53 µM) was 0.473. The relative viability ([23]; first compound 0.08 µM) was 0.643, the relative viability ([23]; first compound 0.253 µM) was 0.648 and the relative viability ([23]; first compound 0.8 µM) was 0.72. For the same molecule, the relative viability ([23]; first compound 2.53 µM) was 0.584.
